Measured values as given in ChEMBL document CHEMBL6083271 (J Med Chem, 2024).
Active and inactive are the calls of the source. No cut-off for these calls is given here.

Key:
RS4-11 [1] = assay: Antiproliferative activity against human RS4;11 cells harbouring p53 wild type assessed as inhibition of cell growth measured after 4 days by WST-8 assay; type: functional, cell-based; details: RS4-11, 96 h
RS4-11 [2] = assay: Antiproliferative activity against human RS4;11 cells harbouring p53 mutant assessed as inhibition of cell growth measured after 4 days by WST-8 assay; type: functional, cell-based; details: RS4-11, 96 h
RS4-11 [3] = assay: Antitumor activity against human RS4;11 cells xenografted in SCID mouse model assessed as tumor regression at 50 mg/kg, iv qd administered every other for 2 weeks by caliper method relative to control; type: functional
RS4-11 [4] = assay: Antiproliferative activity against human RS4;11 cells assessed as inhibition of cell growth measured after 4 days by WST-8 assay; type: functional, cell-based; details: RS4-11, 96 h
MV4-11 [5] = assay: Antiproliferative activity against human MV4-11 cells assessed as inhibition of cell growth measured after 4 days by WST-8 assay; type: functional, cell-based; details: MV4-11, 96 h
RS4-11 [6] = assay: Antitumor activity against human RS4;11 cells xenografted in female NOD-SCID mouse model assessed as tumor regression at 50 mg/kg, iv administered every other day for 2 weeks by vernier method relative to control; type: functional
[7] = Toxicity in female NOD-SCID mouse assessed as effect on body weight at 50 mg/kg, iv qd; type: organism-based; details: in vivo
RS4-11 [8] = assay: Upregulation of p53 level in human RS4;11 cells harbouring wild type p53 at 1 to 3 nM measured after 2 hrs by Western blot analysis; type: functional, cell-based; details: dose 1-3 nM
MV4-11 [9] = assay: Upregulation of p53 level in human MV4-11 cells at 1 to 3 nM measured after 2 hrs by Western blot analysis; type: functional, cell-based; details: dose 1-3 nM
RS4-11 [10] = assay: Downregulation of MDM2 level in human RS4;11 cells at 1 nM measured after 2 hrs by Western blot analysis; type: functional, cell-based
MV4-11 [11] = assay: Downregulation of MDM2 level in human MV4-11 cells at 3 to 30 nM measured after 2 hrs by Western blot analysis; type: functional, cell-based; details: dose 3-30 nM
[12] = Upregulation of MDM2 mRNA level in human RS4;11 cells assessed as fold change at 10 nM measured after 3 hrs by qRT-PCR analysis; type: functional
[13] = Upregulation of p21 mRNA level in human RS4;11 cells assessed as fold change at 10 nM measured after 3 hrs by qRT-PCR analysis; type: functional
[14] = Upregulation of PUMA mRNA level in human RS4;11 cells assessed as fold change at 10 nM measured after 3 hrs by qRT-PCR analysis; type: functional
RS4-11 [15] = assay: Effect of p53 mRNA level in human RS4;11 cells at 10 nM by qRT-PCR analysis; type: functional, cell-based
[16] = Upregulation of p21 mRNA level in human MV4-11 cells assessed as fold increase at 30 nM by qRT-PCR analysis; type: functional
[17] = Upregulation of PUMA mRNA level in human MV4-11 cells assessed as fold increase at 30 nM by qRT-PCR analysis; type: functional
MV4-11 [18] = assay: Effect on p53 mRNA level in human MV4-11 cells at 30 nM by qRT-PCR analysis; type: functional, cell-based
OCI-AML2 = assay: Antiproliferative activity against human OCI-AML2 cells assessed as inhibition of cell growth measured after 4 days by WST-8 assay; type: functional, cell-based; details: OCI-AML2, 96 h
OCI-AML-3 = assay: Antiproliferative activity against human OCI-AML-3 cells assessed as inhibition of cell growth measured after 4 days by WST-8 assay; type: functional, cell-based; details: OCI-AML-3, 96 h
OCI-AML-5 = assay: Antiproliferative activity against human OCI-AML5 cells assessed as inhibition of cell growth measured after 4 days by WST-8 assay; type: functional, cell-based; details: OCI-AML-5, 96 h
MOLM-13 = assay: Antiproliferative activity against human MOLM-13 cells assessed as inhibition of cell growth measured after 4 days by WST-8 assay; type: functional, cell-based; details: MOLM-13, 96 h
MOLM-14 = assay: Antiproliferative activity against human MOLM-14 cells assessed as inhibition of cell growth measured after 4 days by WST-8 assay; type: functional, cell-based; details: MOLM-14, 96 h
ML-2 = assay: Antiproliferative activity against human ML-2 cells assessed as inhibition of cell growth measured after 4 days by WST-8 assay; type: functional, cell-based; details: ML-2, 96 h
SIG-M5 = assay: Antiproliferative activity against human SIG-M5 cells assessed as inhibition of cell growth measured after 4 days by WST-8 assay; type: functional, cell-based; details: SIG-M5, 96 h
[19] = Half life in mouse at 10 mg/kg, iv; type: ADME, organism-based; details: in vivo
[20] = AUC (0 to t) in mouse at 10 mg/kg, iv; type: ADME, organism-based; details: in vivo
[21] = Clearance in mouse at 10 mg/kg, iv; type: ADME, organism-based; details: in vivo
[22] = Volume of distribution at steady state in mouse at 10 mg/kg, iv; type: ADME, organism-based; details: in vivo, read-out: Vdss
[23] = Half life in rat at 5 mg/kg, iv; type: ADME, organism-based; details: in vivo
[24] = AUC (0 to t) in rat at 5 mg/kg, iv; type: ADME, organism-based; details: in vivo
[25] = Clearance in rat at 5 mg/kg, iv; type: ADME, organism-based; details: in vivo
[26] = Volume of distribution at steady state in rat at 5 mg/kg, iv; type: ADME, organism-based; details: in vivo, read-out: Vdss
[27] = Half life in dog at 2.5 mg/kg, iv; type: ADME, organism-based, Canis lupus familiaris; details: in vivo
[28] = AUC (0 to t) in dog at 2.5 mg/kg, iv; type: ADME, organism-based, Canis lupus familiaris; details: in vivo
[29] = Clearance in dog at 2.5 mg/kg, iv; type: ADME, organism-based, Canis lupus familiaris; details: in vivo
[30] = Volume of distribution at steady state in dog at 2.5 mg/kg, iv; type: ADME, organism-based, Canis lupus familiaris; details: in vivo, read-out: Vdss
RS4-11 [31] = assay: Antitumor activity against human RS4;11 cells xenografted in female NOD-SCID mouse model assessed as tumor regression at 25 mg/kg, iv administered every other day for 2 weeks by vernier method relative to control; type: functional
RS4-11 [32] = assay: Antitumor activity against human RS4;11 cells xenografted in female NOD-SCID mouse model assessed as reduction in tumor size at 25 mg/kg, iv administered every other day for 2 weeks by vernier method relative to control; type: functional; design: scale not given: the % may be the effect or the level left
RS4-11 [33] = assay: Antitumor activity against human RS4;11 cells xenografted in female NOD-SCID mouse model assessed as tumor regression at 25 mg/kg, iv measured upto 34 days by vernier method relative to control; type: functional; details: time <= 34 day
[34] = Toxicity in female NOD-SCID mouse assessed as effect on body weight at 25 mg/kg, iv qd; type: organism-based; details: in vivo
RS4-11 [35] = assay: Antitumor activity against human RS4;11 cells xenografted in female NOD-SCID mouse model assessed as median survival time at 25 mg/kg, iv qw (reference value: 47.5 days); type: functional
RS4-11 [36] = assay: Antitumor activity against human RS4;11 cells xenografted in female NOD-SCID mouse model assessed as median survival time at 50 mg/kg, iv qw (reference value: 47.5 days); type: functional
RS4-11 [37] = assay: Downregulation of MDM2 protein level in human RS4;11 cells at 3 nM measured after 2 hrs in presence of lenalidomide by Western blot analysis; type: functional, cell-based
MV4-11 [38] = assay: Downregulation of MDM2 protein level in human MV4-11 cells at 3 nM measured after 2 hrs in presence of lenalidomide by Western blot analysis; type: functional, cell-based
RS4-11 [39] = assay: Upregulation of p53 protein level in human RS4;11 cells at 3 nM measured after 2 hrs in presence of lenalidomide by Western blot analysis; type: functional, cell-based
MV4-11 [40] = assay: Upregulation of p53 protein level in human MV4-11 cells at 3 nM measured after 2 hrs in presence of lenalidomide by Western blot analysis; type: functional, cell-based
RS4-11 [41] = assay: Antiproliferative activity against human RS4;11 cells assessed as inhibition of cell growth measured after 4 days in presence of lenalidomide by WST-8 assay; type: functional, cell-based; details: time 4.0 day
MV4-11 [42] = assay: Antiproliferative activity against human MV4-11 cells assessed as inhibition of cell growth measured after 4 days in presence of lenalidomide by WST-8 assay; type: functional, cell-based; details: time 4.0 day
RS4-11 [43] = assay: Antitumor activity against human RS4;11 cells xenografted in SCID mouse model assessed as tumor regression at 50 mg/kg, iv qd administered every other for 2 weeks and measured upto 30 days by caliper method relative to control; type: functional; details: time <= 30 day

For `O=C1CCC(N2Cc3c(C#CCCCNC(=O)c4ccc(NC(=O)[C@@H]5NC6(CCCCC6)[C@@]6(C(=O)Nc7cc(Cl)ccc76)[C@H]5c5cccc(Cl)c5F)cc4)cccc3C2=O)C(=O)N1` (stereo partly drawn), the IC50 (RS4-11 [1]) was 4 nM, the IC50 (RS4-11 [2]) was over 1000 nM and the Activity (RS4-11 [3]) was 100%. It also gave an IC50 (RS4-11 [4]) of 2 nM, an IC50 (MV4-11 [5]) of 7 nM and an Activity (RS4-11 [6]) of 100%. For the same molecule, the Activity [7] was “Non-toxic”.

In the case of `O=C1CCC(N2Cc3c(C#CC4CCN(C(=O)[C@H]5CC[C@H](NC(=O)[C@@H]6NC7(CCCCC7)[C@@]7(C(=O)Nc8cc(Cl)ccc87)[C@H]6c6cccc(Cl)c6F)CC5)CC4)cccc3C2=O)C(=O)N1` (stereo partly drawn), the IC50 (RS4-11 [4]) is reported as 0.7 nM, the IC50 (MV4-11 [5]) is reported as 2 nM and the Activity (RS4-11 [8]) is reported as “Active”. The Activity (MV4-11 [9]) was “Active”, the Activity (RS4-11 [10]) was “Active” and the Activity (MV4-11 [11]) was “Active”. For the same molecule, the “fold change (FC)” value [12] was 8, the “fold change (FC)” value [13] was 8 and the “fold change (FC)” value [14] was 8. The Activity (RS4-11 [15]) was “inactive”, the “fold change (FC)” value [16] was 10 and the “fold change (FC)” value [17] was 3. The Activity (MV4-11 [18]) was “inactive”, the IC50 (OCI-AML2) was 24 nM and the IC50 (OCI-AML-3) was 212 nM. For the same molecule, the IC50 (OCI-AML-5) was 23 nM, the IC50 (MOLM-13) was 5.7 nM and the IC50 (MOLM-14) was 7.6 nM. It also gave an IC50 (ML-2) of 1.2 nM, an IC50 (SIG-M5) of 20 nM and a half-life [19] of 6.1 h. For the same molecule, the AUC(0-t) [20] was 156000 ng·h/mL, the clearance [21] was 1.1 mL/min/kg and the Vd [22] was 0.54 L/kg. It also gave a half-life [23] of 5.6 h, an AUC(0-t) [24] of 13000 ng·h/mL and a clearance [25] of 3.2 mL/min/kg. It also gave a Vd [26] of 0.15 L/kg, a half-life [27] of 6.3 h and an AUC(0-t) [28] of 5500 ng·h/mL. For the same molecule, the clearance [29] was 7.4 mL/min/kg, the Vd [30] was 0.93 L/kg and the Activity (RS4-11 [31]) was 100%. The Activity (RS4-11 [32]) was over 70%, the Activity (RS4-11 [33]) was 100% and the Activity [34] was “Non-toxic”. For the same molecule, the MST (RS4-11 [35]) was 78.5 days, the MST (RS4-11 [36]) was 72 days and the Activity (RS4-11 [37]) was “inactive”. For the same molecule, the Activity (MV4-11 [38]) was “inactive”, the Activity (RS4-11 [39]) was “inactive” and the Activity (MV4-11 [40]) was “inactive”. For the same molecule, the Activity (RS4-11 [41]) was “inactive” and the Activity (MV4-11 [42]) was “inactive”.

With `O=C1CCC(N2Cc3c(C#CC4CCN(C(=O)c5ccc(NC(=O)[C@@H]6NC7(CCCCC7)[C@@]7(C(=O)Nc8cc(Cl)ccc87)[C@H]6c6cccc(Cl)c6F)cc5)CC4)cccc3C2=O)C(=O)N1` (stereo partly drawn) the IC50 (RS4-11 [1]) was 4 nM, the IC50 (RS4-11 [2]) was 50 nM and the Activity (RS4-11 [43]) was 100%. The IC50 (RS4-11 [4]) was 3 nM, the IC50 (MV4-11 [5]) was 14 nM and the IC50 (OCI-AML2) was 113 nM. It also gave an IC50 (OCI-AML-3) of 7750 nM, an IC50 (OCI-AML-5) of 148 nM and an IC50 (MOLM-13) of 37 nM. It also gave an IC50 (MOLM-14) of 76 nM, an IC50 (ML-2) of 11 nM and an IC50 (SIG-M5) of 103 nM.
